Assay results published in patent US20210215714A1, “COMPLEMENT ALTERNATIVE PATHWAY-ASSOCIATED NEPHROPATHY BIOMARKERS” (Achillion Pharmaceuticals, Inc., priority 2018, published 2021).

Tested on: Ba
Assay: Phase 2a study: urinary Ba (MicroVue Ba Enzyme Immunoassay)
Type: in vivo, human
[1] = Patient A, 100 mg TID, Day 1/0 Hour
[2] = Patient A, 100 mg TID, Day 7/0 Hour
[3] = Patient A, 100 mg TID, Day 15 Taper
[4] = Patient A, 100 mg TID, Day 16 Taper
[5] = Patient A, 100 mg TID, Day 17 Taper
[6] = Patient A, 100 mg TID, Day 21 Taper
[7] = Patient A, 100 mg TID, Follow-Up Day 24
[8] = Patient A, 100 mg TID, Follow-Up Day 28
[9] = Patient A, 100 mg TID, Follow-Up Day 49
[10] = Patient B, 100 mg TID, Day 1/0 Hour
[11] = Patient B, 100 mg TID, Day 7/0 Hour
[12] = Patient B, 100 mg TID, Day 15 Taper
[13] = Patient B, 100 mg TID, Day 16 Taper
[14] = Patient B, 100 mg TID, Day 17 Taper
[15] = Patient B, 100 mg TID, Day 21 Taper
[16] = Patient B, 100 mg TID, Follow-Up Day 24
[17] = Patient B, 100 mg TID, Follow-Up Day 28
[18] = Patient B, 100 mg TID, Follow-Up Day 49
[19] = Patient C, 200 mg TID, Day 1/0 Hour
[20] = Patient C, 200 mg TID, Day 7/0 Hour
[21] = Patient C, 200 mg TID, Day 15 Taper
[22] = Patient C, 200 mg TID, Day 16 Taper
[23] = Patient C, 200 mg TID, Day 17 Taper
[24] = Patient C, 200 mg TID, Day 21 Taper
[25] = Patient C, 200 mg TID, Follow-Up Day 24
[26] = Patient C, 200 mg TID, Follow-Up Day 28
[27] = Patient C, 200 mg TID, Follow-Up Day 49
[28] = Patient D, 200 mg TID, Day 1/0 Hour
[29] = Patient D, 200 mg TID, Day 7/0 Hour
[30] = Patient D, 200 mg TID, Day 15 Taper
[31] = Patient D, 200 mg TID, Day 17 Taper
[32] = Patient D, 200 mg TID, Day 21 Taper

Compound: CC(=O)c1nn(CC(=O)N2C[C@H](F)C[C@H]2C(=O)Nc2cccc(Br)n2)c2ccc(-c3cnc(C)nc3)cc12 [Compound 1, (2S,4R)-1-(2-(3-acetyl-5-(2-methylpyrimidin-5-yl)-1H-indazol-1-yl)acetyl)-N-(6-bromopyridin-2-yl)-4-fluoropyrrolidine-2-carboxamide]
- Ba/ALB [1]: 22.1 ng/mg
- Ba/Cr [1]: 5.7 µg/mmol
- Urine Ba [1]: 47.1 ng/mL
- Ba/ALB (Patient A, 100 mg TID, Day 4): 8.4 ng/mg
- Ba/Cr (Patient A, 100 mg TID, Day 4): 1.8 µg/mmol
- Urine Ba (Patient A, 100 mg TID, Day 4): 14.7 ng/mL
- Ba/ALB [2]: 7.5 ng/mg
- Ba/Cr [2]: 1.8 µg/mmol
- Urine Ba [2]: 11.6 ng/mL
- Ba/ALB (Patient A, 100 mg TID, Day 10): 6.1 ng/mg
- Ba/Cr (Patient A, 100 mg TID, Day 10): 1.4 µg/mmol
- Urine Ba (Patient A, 100 mg TID, Day 10): 8.6 ng/mL
- Ba/ALB [3]: 11.4 ng/mg
- Ba/Cr [3]: 1.6 µg/mmol
- Urine Ba [3]: 11.9 ng/mL
- Ba/ALB [4]: 16.3 ng/mg
- Ba/Cr [4]: 2.3 µg/mmol
- Urine Ba [4]: 17.4 ng/mL
- Ba/ALB [5]: 18.6 ng/mg
- Ba/Cr [5]: 2.1 µg/mmol
- Urine Ba [5]: 21.2 ng/mL
- Ba/ALB [6]: 65.5 ng/mg
- Ba/Cr [6]: 9.2 µg/mmol
- Urine Ba [6]: 79.8 ng/mL
- Ba/ALB [7]: 83.3 ng/mg
- Ba/Cr [7]: 11.5 µg/mmol
- Urine Ba [7]: 115.3 ng/mL
- Ba/ALB [8]: 77.1 ng/mg
- Ba/Cr [8]: 10.2 µg/mmol
- Urine Ba [8]: 100.8 ng/mL
- Ba/ALB [9]: 26.5 ng/mg
- Ba/Cr [9]: 3.8 µg/mmol
- Urine Ba [9]: 16.5 ng/mL
- Ba/ALB (Patient A, 100 mg TID, Screen): 15.0 ng/mg
- Ba/Cr (Patient A, 100 mg TID, Screen): 3.4 µg/mmol
- Urine Ba (Patient A, 100 mg TID, Screen): 28.3 ng/mL
- Ba/ALB [10]: 225 ng/mg
- Ba/Cr [10]: 129.9 µg/mmol
- Urine Ba [10]: 793 ng/mL
- Ba/ALB (Patient B, 100 mg TID, Day 4): 47 ng/mg
- Ba/Cr (Patient B, 100 mg TID, Day 4): 12.4 µg/mmol
- Urine Ba (Patient B, 100 mg TID, Day 4): 158 ng/mL
- Ba/ALB [11]: 41 ng/mg
- Ba/Cr [11]: 10.2 µg/mmol
- Urine Ba [11]: 149 ng/mL
- Ba/ALB (Patient B, 100 mg TID, Day 10): 28 ng/mg
- Ba/Cr (Patient B, 100 mg TID, Day 10): 7.0 µg/mmol
- Urine Ba (Patient B, 100 mg TID, Day 10): 53 ng/mL
- Ba/ALB (Patient B, 100 mg TID, Day 14): 54 ng/mg
- Ba/Cr (Patient B, 100 mg TID, Day 14): 14.2 µg/mmol
- Urine Ba (Patient B, 100 mg TID, Day 14): 238 ng/mL
- Ba/ALB [12]: 58 ng/mg
- Ba/Cr [12]: 19.0 µg/mmol
- Urine Ba [12]: 209 ng/mL
- Ba/ALB [13]: 77 ng/mg
- Ba/Cr [13]: 25.2 µg/mmol
- Urine Ba [13]: 318 ng/mL
- Ba/ALB [14]: 55 ng/mg
- Urine Ba [14]: 164 ng/mL
- Ba/ALB [15]: 43 ng/mg
- Ba/Cr [15]: 15.9 µg/mmol
- Urine Ba [15]: 129 ng/mL
- Ba/ALB [16]: 87 ng/mg
- Ba/Cr [16]: 41.1 µg/mmol
- Urine Ba [16]: 251 ng/mL
- Ba/ALB [17]: 65 ng/mg
- Ba/Cr [17]: 24.6 µg/mmol
- Urine Ba [17]: 175 ng/mL
- Ba/ALB [18]: 771 ng/mg
- Ba/Cr [18]: 108.0 µg/mmol
- Urine Ba [18]: 1727 ng/mL
- Ba/ALB (Patient B, 100 mg TID, Screen): 97 ng/mg
- Ba/Cr (Patient B, 100 mg TID, Screen): 47.1 µg/mmol
- Urine Ba (Patient B, 100 mg TID, Screen): 348 ng/mL
- Ba/ALB [19]: 2.9 ng/mg
- Ba/Cr [19]: 0.168 µg/mmol
- Urine Ba [19]: 0.30 ng/mL
- Ba/ALB (Patient C, 200 mg TID, Day 4): 1.5 ng/mg
- Ba/Cr (Patient C, 200 mg TID, Day 4): 0.040 µg/mmol
- Urine Ba (Patient C, 200 mg TID, Day 4): 0.08 ng/mL
- Ba/ALB [20]: 2.6 ng/mg
- Ba/Cr [20]: 0.056 µg/mmol
- Urine Ba [20]: 0.21 ng/mL
- Ba/ALB (Patient C, 200 mg TID, Day 10): 1.5 ng/mg
- Ba/Cr (Patient C, 200 mg TID, Day 10): 0.053 µg/mmol
- Urine Ba (Patient C, 200 mg TID, Day 10): 0.08 ng/mL
- Ba/ALB (Patient C, 200 mg TID, Day 14): 2.2 ng/mg
- Ba/Cr (Patient C, 200 mg TID, Day 14): 0.068 µg/mmol
- Urine Ba (Patient C, 200 mg TID, Day 14): 0.09 ng/mL
- Ba/ALB [21]: 2.2 ng/mg
- Ba/Cr [21]: 0.099 µg/mmol
- Urine Ba [21]: 0.15 ng/mL
- Ba/ALB [22]: 3.0 ng/mg
- Ba/Cr [22]: 0.078 µg/mmol
- Urine Ba [22]: 0.15 ng/mL
- Ba/ALB [23]: 1.8 ng/mg
- Ba/Cr [23]: 0.058 µg/mmol
- Urine Ba [23]: 0.13 ng/mL
- Ba/ALB [24]: 7.5 ng/mg
- Ba/Cr [24]: 0.175 µg/mmol
- Urine Ba [24]: 0.49 ng/mL
- Ba/ALB [25]: 2.3 ng/mg
- Ba/Cr [25]: 0.075 µg/mmol
- Urine Ba [25]: 0.14 ng/mL
- Ba/ALB [26]: 4.5 ng/mg
- Ba/Cr [26]: 0.213 µg/mmol
- Urine Ba [26]: 0.62 ng/mL
- Ba/ALB [27]: 1.7 ng/mg
- Ba/Cr [27]: 0.036 µg/mmol
- Urine Ba [27]: 0.16 ng/mL
- Ba/ALB (Patient C, 200 mg TID, Screen): 1.5 ng/mg
- Ba/Cr (Patient C, 200 mg TID, Screen): 0.065 µg/mmol
- Urine Ba (Patient C, 200 mg TID, Screen): 0.12 ng/mL
- Ba/ALB [28]: 10.9 ng/mg
- Ba/Cr [28]: 2.5 µg/mmol
- Urine Ba [28]: 14.2 ng/mL
- Ba/ALB (Patient D, 200 mg TID, Day 4): 3.5 ng/mg
- Ba/Cr (Patient D, 200 mg TID, Day 4): 1.0 µg/mmol
- Urine Ba (Patient D, 200 mg TID, Day 4): 4.4 ng/mL
- Ba/ALB [29]: 6.5 ng/mg
- Ba/Cr [29]: 2.1 µg/mmol
- Urine Ba [29]: 2.4 ng/mL
- Ba/ALB (Patient D, 200 mg TID, Day 10): 2.8 ng/mg
- Ba/Cr (Patient D, 200 mg TID, Day 10): 1.8 µg/mmol
- Urine Ba (Patient D, 200 mg TID, Day 10): 1.8 ng/mL
- Ba/ALB (Patient D, 200 mg TID, Day 14): 4.6 ng/mg
- Ba/Cr (Patient D, 200 mg TID, Day 14): 1.3 µg/mmol
- Urine Ba (Patient D, 200 mg TID, Day 14): 4.1 ng/mL
- Ba/ALB [30]: 4.3 ng/mg
- Ba/Cr [30]: 2.0 µg/mmol
- Urine Ba [30]: 8.4 ng/mL
- Ba/ALB [31]: 2.9 ng/mg
- Ba/Cr [31]: 1.7 µg/mmol
- Urine Ba [31]: 5.0 ng/mL
- Ba/ALB [32]: 7.8 ng/mg
- Ba/Cr [32]: 4.4 µg/mmol
